Assay results as given in US20090074802A1, “IMMUNOMODULATING OLIGOPEPTIDES” (priority 2006, published 2009).

Test system: Balb/c mice immunized with KLH
Experiment: Humoral immune response to T-cell dependent antigen (KLH) in mice; isotype-specific anti-KLH ELISA of serum
Type: in vivo, mouse
Conditions: day 28 after a single injection; 20 μg peptide i.p.; KLH 20 μg s.c. with complete Freund adjuvant
Method: To investigate the effect of B134, a representative of the XPY family, inbred SPF mice (Balb/cAwNCrl, 7 to 8 week old, Charles River Laboratories GmbH, Germany) were immunized with KLH, a T-cell dependent antigen. 3 mice per group were injected subcutaneously in the presence of complete Freund adjuvant (50/50 v/v). The mix of antigen (20 μg in 100 μl) with adjuvant (Sigma, #F-5881) was emulsified and injected in the neck region. At the same day 20 μg of immunomodulator B134 or B211 were injected in 200 μl of PBS intraperitoneally. Samples of blood (50-70 μl) were collected from mice on day 7, 14, 21, and 28 from the leg vein. Serum was prepared by clotting the blood for 2 hours at 37° C., followed by 18 hours at 8° C., and centrifugation at 10,000 rpm in an Eppendorf-like centrifuge. Sera were stored diluted with antibody stabilizer (SkyTec ABB500) at 4° C., and analyzed in ELISA simultaneously. For the latter assay, the 96 wells ELISA plates (Greiner, #655061) were coated with KLH (soluble, Sigma H7017) in phosphate buffered solution (PBS), 0.2 μg/well overnight at 4° C. The diluted sera were incubated with antigen ([…]) for 1 hour at room temperature, followed by a wash with PBS/0.1% Tween-20. The binding of mouse antibodies to KLH was detected using isotype specific anti-mouse immunoglobulins, conjugated with HRP (Southern Biotechnology Ltd., anti-mouse IgM #1021-05, anti-mouse IgG1 #1070-05, anti-mouse IgG2a # 1080-05, anti-mouse IgG2b #1090-05) according to the manufacturer's protocol. TMB was used as a substrate. The results were analyzed on Bio-Rad Microplate Reader Model 550, the optical density was measured at 595 nm.
Results shown in FIG. 1 represent titration slope of the serum from experimental mice. The dilutions of sera used are from 1/300 to 1/20,000 with a step of ½ (indicated on X axis as 1 to 6 respectively). The serum reactivity is presented as O.D. shown by a sample in ELISA. The dots represent the average reactivity of samples from 3 sera (from 3 mice per condition). The variation bar represents the 95% confidence interval.

Substance | titer of IgG2a, times higher than in control mice immunized with antigen alone | titer of IgG2b, times higher than in control mice immunized with antigen alone | titre of specific IgG1 in sera, times higher than in control mice immunized with antigen alone | titer of IgM, times higher than in control mice immunized with antigen alone (every isotype analyzed)
IEWIPY [B211] | ~4 times | ~4 times | approximately 16 times | –
Ile-Pro-Tyr [B134] | approximately 2 times | approximately 2 times | approximately 2 times | approximately 2 times
